Source: the NIST ThermoML archive (doi:10.1021/je050434f)

How the values were obtained:
[1] = for speed of sound / mass density / viscosity: 101.33 kPa, Liquid; for speed of sound: Sing-around technique in a fixed-path interferometer; for mass density: Vibrating tube method; for surface tension liquid-gas: Pendant drop shape; for viscosity: Capillary tube (Ostwald / Ubbelohde) method
[2] = refractive index (Na D-line) (dimensionless); conditions: 101.33 kPa, Liquid, Abbe refractometer

COS(=O)(=O)[O-].Cn1cc[n+](C)c1 [1,3-dimethylimidazolium methylsulfate]
Conditions | mass density, [1] [kg/m3] | refractive index, [2] | speed of sound, [1] [m/s] | surface tension liquid-gas, [1] [mN/m] | viscosity, [1] [mPa·s]
283.15 K | 1338.24 | 1.48659 | 1851 | – | –
288.15 K | 1334.54 | 1.48525 | 1838 | 60.9 | –
293.15 K | 1330.88 | 1.48392 | 1826 | 60.3 | 92.76
298.15 K | 1327.25 | 1.4827 | 1813 | 59.8 | 72.91
303.15 K | 1323.65 | 1.48129 | 1801 | 59.5 | 58.35
308.15 K | 1320.09 | 1.47999 | 1789 | 59.1 | –
313.15 K | 1316.57 | 1.47867 | 1777 | 58.9 | 39.21
318.15 K | 1313.05 | 1.47726 | 1765 | – | –
323.15 K | 1309.55 | 1.47593 | 1753 | – | 27.78
328.15 K | 1306.06 | 1.47421 | 1742 | – | –
333.15 K | 1302.59 | 1.47294 | 1730 | – | 21.01
338.15 K | 1299.14 | 1.47154 | 1719 | – | –
343.15 K | 1295.7 | 1.47027 | 1708 | – | 16.01
